Results as given in ChEMBL document CHEMBL2203204, “Identification of selective inhibitors of indoleamine 2,3-dioxygenase 2” (Bioorg Med Chem Lett, 2012).

Biological target: T1, Indoleamine 2,3-dioxygenase 2 (Mus musculus) (UniProt Q8R0V5)
T1 sequence (whole entry): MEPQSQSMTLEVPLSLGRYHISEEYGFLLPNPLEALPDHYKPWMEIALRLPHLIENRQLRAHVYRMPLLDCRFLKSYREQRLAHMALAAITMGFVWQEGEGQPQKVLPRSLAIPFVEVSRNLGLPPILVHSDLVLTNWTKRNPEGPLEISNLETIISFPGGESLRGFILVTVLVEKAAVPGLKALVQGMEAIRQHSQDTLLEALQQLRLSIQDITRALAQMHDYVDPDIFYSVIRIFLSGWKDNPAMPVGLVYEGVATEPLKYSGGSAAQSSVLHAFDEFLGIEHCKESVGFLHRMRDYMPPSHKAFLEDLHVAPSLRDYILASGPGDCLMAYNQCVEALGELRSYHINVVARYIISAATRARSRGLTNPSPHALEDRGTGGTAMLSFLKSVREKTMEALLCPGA
Conditions: HEK-293T, at 20 µM
Description: Inhibition of mouse Ido2 transfected in HEK293T cells using L-tryptophan as substrate assessed as kynurenine formation at 20 uM after 45 mins by spectrophotometric analysis relative to control

| Structure (SMILES) | inhibition |
| --- | --- |
| CC#CCC(C)[C@H](O)/C=C/[C@@H]1[C@H]2C/C(=C/CCCC(=O)O)C[C@H]2C[C@H]1O (some centres undefined) | > 55% |
| CC(C)C[C@H]1C(=O)N2CCC[C@H]2[C@]2(O)O[C@](NC(=O)[C@@H]3C=C4c5cccc6[nH]c(Br)c(c56)C[C@H]4N(C)C3)(C(C)C)C(=O)N12 | > 55% |
| CC(C)OC(=O)C(C)(C)Oc1ccc(C(=O)c2ccc(Cl)cc2)cc1 | > 55% |
| CC(c1cc2ccccc2s1)N(O)C(N)=O (centres undefined) | > 55% |
| CC1=C(C)C(=O)C(CCCCC#CCCCC#CCO)=C(C)C1=O | > 55% |
| CCCCCN(CCCCC)C(=O)C(CCC(=O)O)NC(=O)c1ccc(Cl)c(Cl)c1 (centres undefined) | > 55% |
| CCCSc1ccc2[nH]c(NC(=O)OC)nc2c1 | > 55% |
| CCC[S+]([O-])c1ccc2[nH]c(NC(=O)OC)nc2c1 (centres undefined) | > 55% |
| CCCc1nc2c(C)cc(-c3nc4ccccc4n3C)cc2n1Cc1ccc(-c2ccccc2C(=O)O)cc1 | > 55% |
| CCN(CC)C(=S)SSC(=S)N(CC)CC | > 55% |
| CCN(CC)CCCC(C)Nc1c2ccc(Cl)cc2nc2ccc(OC)cc12 (centres undefined) | > 55% |
| CCOC(=O)C1=C(C)NC(C)=C(C(=O)OC)C1c1cccc(Cl)c1Cl (centres undefined) | > 55% |
| CCOC(=O)C1=C(C)NC(C)=C(C(=O)OC)C1c1cccc([N+](=O)[O-])c1 (centres undefined) | > 55% |
| CCOC(=O)C1=C(C)NC(C)=C(C(=O)OCC)C1c1ccccc1/C=C/C(=O)OC(C)(C)C | > 55% |
| CC[C@@H](C(N)=O)N1CCCC1=O | > 55% |
| CN1C[C@H](C(=O)N[C@]2(C)O[C@@]3(O)[C@@H]4CCCN4C(=O)[C@H](Cc4ccccc4)N3C2=O)C=C2c3cccc4[nH]cc(c34)C[C@H]21 | > 55% |
| COC(=O)C1=C(C)NC(C)=C(C(=O)OCC(C)C)C1c1ccccc1[N+](=O)[O-] (centres undefined) | > 55% |
| COC(=O)C1=C(C)NC(C)=C(C(=O)OCCN(C)Cc2ccccc2)C1c1cccc([N+](=O)[O-])c1 (centres undefined) | > 55% |
| COC(=O)Nc1nc2cc(C(=O)c3ccccc3)ccc2[nH]1 | > 55% |
| COC(=O)Nc1nc2cc([S+]([O-])c3ccccc3)ccc2[nH]1 (centres undefined) | > 55% |
| COCCOC(=O)C1=C(C)NC(C)=C(C(=O)OC(C)C)C1c1cccc([N+](=O)[O-])c1 (centres undefined) | > 55% |
| COCCOC(=O)C1=C(C)NC(C)=C(C(=O)OC/C=C/c2ccccc2)C1c1cccc([N+](=O)[O-])c1 (centres undefined) | > 55% |
| COc1cc2c(cc1OC)-c1c/c(=N\c3c(C)cc(C)cc3C)n(C)c(=O)n1CC2 | > 55% |
| COc1cc2nc(N(C)CCCNC(=O)C3CCCO3)nc(N)c2cc1OC (centres undefined) | > 55% |
